From EP2450458B1, “Novel microorganisms producing a thermostable lipase and their use” (Universiti Putra Malaysia (UPM), priority 2010, dated 2012)
Several values for one entry are separate records, joined by “and”; a condition that tells them apart may be missing. Identical values can stand only once.

Legend:
[1] = system: purified recombinant ARM thermostable lipase; assay: Lipase organic solvent-stability; format: biochemical, Geobacillus sp. strain ARM; details: solvent 30% v/v, 30 min at 30°C, 150 rpm; assay at 65°C
Description: Aliquots of the enzyme were incubated with the solvents (30%, v/v) for 30 min at 30°C with shaking at 150 rpm. […] The stability was expressed as the remaining lipolytic activity relative to that of the control (without solvent). The relative activity was measured at 65°C as described before.

[2] = values in parenthesis used to select the solvents; cited from earlier work
[3] = system: purified recombinant ARM thermostable lipase; assay: Effect of metal ions on lipase activity; format: biochemical, Geobacillus sp. strain ARM; details: pre-incubation 30 min at 30°C, assay at 65°C
Description: To determine the effects of metal ions on the lipase activity, the purified enzyme was pre-incubated for 30 min at 30°C with various metal ions. Two concentrations (1 and 5 mM) of each of the following ions were used: CO^2+, CU^2+, Mg^2+, Ni^2+, Mn^2+, Zn^2+ Fe^2+, Ca^2+, Sr^2+, K^+, Na^+, Rb^+ and Ag^+. All salts were dissolved in MOPS buffer (50 mM, pH 8.0) (Aslamkhan et al., 2002). The control contained no ion. The relative activity was measured at 65°C using olive oil (emulsified, 1:1 v/v, in 50 mM Tris-HCl buffer, pH 8.0) as substrate. Metal cations play different and important roles in influencing the structure and function of lipases (Gupta et al.., 2004a; Kim et al., 2005). The effect of different metal ions on the purified ARM lipase activity was studied (Figure 29). […] The Ca^2+-binding motif was not found in ARM lipase sequence.

[4] = system: purified recombinant ARM thermostable lipase; assay: Effect of inhibitors on lipase activity; format: biochemical, Geobacillus sp. strain ARM; details: pre-incubation 30 min at 30°C, assay at 65°C
Description: The control contained no inhibitor. The relative activity was measured at 65°C using olive oil (emulsified, 1:1 v/v, in 50 mM Tris-HCl buffer, pH 8.0) as substrate.

[5] = system: purified recombinant ARM thermostable lipase; assay: Effect of surfactants on lipase activity; format: biochemical, Geobacillus sp. strain ARM; details: pre-incubation 30 min at 30°C, assay at 65°C
Description: The effect of surfactants on the lipase activity was investigated by pre-incubating the purified enzyme for 30 min at 30°C in Tris-HCl buffer (50 mM, pH 8.0) containing 0.1 and 1% (v/v) of following surfactants (nonionic surfactants): Tween 20, Tween 40, Tween 80, Tween 85, Triton X-100, Triton B1958, Span 20. In the case of SDS (ionic surfactant) concentrations were 1 and 5 mM. The control contained no surfactant. The relative activity was measured at 65°C using olive oil (emulsified, 1:1 v/v, in 50 mM Tris-HCl buffer, pH 8.0) as substrate. The effects of various surfactants on the purified ARM lipase are depicted in Figure 30.

[6] = system: purified recombinant ARM thermostable lipase; assay: Effect of ionic liquids on lipase hydrolytic activity; format: biochemical, Geobacillus sp. strain ARM; details: 90% (v/v) ionic liquid, 0 min, without incubation; assay at 65°C
Description: (§1) Aliquots of the enzyme were suspended in 90% (v/v) of four different ionic liquids (ILs) properly. Then, the mixture of lipase and ILs was incubated for 0-90 min at 60°C with shaking at 150 rpm. The selected ILs were [Emim][BF4], [Emim][TfO], [Bmim][BF4] and […]. The thermostability was expressed as the remaining lipolytic activity relative to that of the control (without ILs) after incubation at high temperature. The residual activity was measured at 65°C as described before.

[7] = system: purified recombinant ARM thermostable lipase; assay: Effect of ionic liquids on lipase thermostability at 60°C; format: biochemical, Geobacillus sp. strain ARM; details: 90% (v/v) ionic liquid, 0-90 min at 60°C, 150 rpm; assay at 65°C
Description: as §1

## 1-butanol
[1]
  effect on lipase activity/stability: dramatically inhibited

## 1-propanol
[1]
  effect on lipase activity/stability: dramatically inhibited

## CCCCCCCCCCO [1-decanol]
[1]
  remaining lipolytic activity relative to the control (without solvent): 86%

## CCCCCCCCCCCCO [1-dodecanol]
[1]
  remaining lipolytic activity relative to the control (without solvent): more than 100%
[2]
  log P: 5

## CCCCCCCCCCCCCCCC [1-hexadecane]
[1]
  remaining lipolytic activity relative to the control (without solvent): 78%

## CCCCCCCCO [1-octanol]
[1]
  remaining lipolytic activity relative to the control (without solvent): more than 100%
[2]
  log P: 2.9

## CCCCCCCCCCCO [1-undecanol]
[1]
  remaining lipolytic activity relative to the control (without solvent): 74%
[2]
  log P: 4.6

## CC(O)C(C)O (stereo not shown) [2,3-butanediol]
[2]
  log P: -0.92

## CC(C)O [2-propanol]
[1]
  effect on lipase activity/stability: dramatically inhibited

## [Ca+2] [Ca^2+]
[3]; 1 and 5 mM ion
  effect on lipase activity: stimulated the lipase activity

## C[S+](C)[O-] [DMSO]
[1]
  remaining lipolytic activity relative to the control (without solvent): 62.5% and 62.4%

## O=C(O)CN(CCN(CC(=O)O)CC(=O)O)CC(=O)O [EDTA, ethylene diamine tetra-acetic acid]
[4]; 1 mM
  activation of the lipase: around 20%
[4]; 5 mM
  activation of the lipase: more than 60%

## CCCCCCCCCCCCOS(=O)(=O)[O-].[Na+] [SDS]
[5]; 1 and 5 mM (ionic surfactant)
  effect on lipase activity: strongly inhibited

## [Sr+2] [Sr^2+]
[3]; 1 mM ion
  effect on lipase activity: stimulated the lipase activity

## CCCCn1cc[n+](C)c1.F[B-](F)(F)F [[Bmim][BF4]]
[6]
  effect on lipase activity: decreased lipase activity

## CCCCn1cc[n+](C)c1.F[P-](F)(F)(F)(F)F [[Bmim][PH6]]
[6]
  lipase activity relative to the control (without ILs): up to 120%

## CCn1cc[n+](C)c1.F[B-](F)(F)F [[Emim][BF4]]
[6]
  effect on lipase activity: no significant effect
[7]
  effect on lipase thermostability: significant effects on lipase thermostability enhancement

## CCn1cc[n+](C)c1.O=S(=O)([O-])C(F)(F)F [[Emim][TfO]]
[6]
  lipase activity relative to the control (without ILs): up to 120%
[7]
  effect on lipase thermostability: significant effects on lipase thermostability enhancement

## CC(C)=O [acetone]
[1]
  effect on lipase activity/stability: dramatically inhibited
[2]
  log P: -0.208

## CC#N [acetonitrile]
[1]
  effect on lipase activity/stability: dramatically inhibited
[2]
  log P: -0.394

## c1ccccc1 [benzene]
[1]
  remaining lipolytic activity relative to the control (without solvent): more than 100%

## OCc1ccccc1 [bnzyl alcohol]
[1]
  effect on lipase activity/stability: dramatically inhibited

## CCc1ccccc1 [ethylbenzene]
[1]
  remaining lipolytic activity relative to the control (without solvent): 77%
[2]
  log P: 3.3

## CCCCCCCCCCCCCCCCC [heptadecane]
[1]
  remaining lipolytic activity relative to the control (without solvent): more than 100%
[2]
  log P: 8.69

## CCCCCCC [heptan]
[1]
  remaining lipolytic activity relative to the control (without solvent): more than 100%
[2]
  log P: 4.4

## CC(C)CCO [iso-amyl alcohol]
[1]
  effect on lipase activity/stability: dramatically inhibited
[2]
  log P: 1.3

## CC(C)CO [iso-butanol]
[1]
  effect on lipase activity/stability: dramatically inhibited
[2]
  log P: 0.79

## CC(C)CC(C)(C)C [iso-octane]
[1]
  remaining lipolytic activity relative to the control (without solvent): more than 100%
[2]
  log P: 4.5

## CCCCCCCCCCCCCCC [n-pentadecane]
[1]
  remaining lipolytic activity relative to the control (without solvent): more than 100%
[2]
  log P: 7.71

## CCCCCCCCCCCCCC [n-tetradecane]
[1]
  remaining lipolytic activity relative to the control (without solvent): more than 100%
[2]
  log P: 7

## Cc1ccccc1C [o-xylene]
[1]
  remaining lipolytic activity relative to the control (without solvent): more than 100%

## Cc1ccccc1 [toluene]
[1]
  remaining lipolytic activity relative to the control (without solvent): more than 100%

## Span 20
[5]; 0.1 and 1% (v/v) surfactant
  effect on lipase activity: not affected

## Triton X-100
[5]; 1% surfactant
  increase in lipase activity: 20%

## hexanes
[1]
  remaining lipolytic activity relative to the control (without solvent): more than 100%
[2]
  log P: 3.6
